The results in this text go back to patent US10370351B2, “Photoinduced electron transfer voltage-sensitive compounds” (The Regents of the University of California, priority 2016, dated 2019).

Series [1] deals with HEK293T cells. The experiment in a line: Voltage sensitivity in HEK cells, whole-cell patch clamp with fluorescence imaging. To be noted: for ΔF/F (%) voltage sensitivity: per 100 mV, HEK cells, whole-cell voltage clamp, 200 nM VF. The series is classed as cell-based. As for the experimental part: Functional imaging of VF dyes was performed using a 20× objective paired with image capture from the EMCCD camera at a sampling rate of 0.5 kHz. VF dyes were excited using the 488 nm LED with an intensity of 2.5 W/cm^2. For initial voltage characterization emission was collected with the QUAD filter (430/32, 508/14, 586/30, 708/98 nm) after passing through a quadruple dichroic mirror (432/38, 509/22, 586/40, 654 nm LP).
Recordings were obtained with an Axopatch 200B amplifier (Molecular Devices) at room temperature. The signals were digitized with Digidata 1332A, sampled at 50 kHz and recorded with pCLAMP 10 software (Molecular Devices) on a PC. Fast capacitance was compensated in the on-cell configuration. For all electrophysiology experiments, recordings were only pursued if series resistance in voltage clamp was less than 30 MΩ. For whole-cell, voltage clamp recordings in HEK 293T cells, cells were held at −60 mV and 100 ms hyper- and depolarizing steps applied from −100 to +100 mV in 20 mV increments. For whole-cell, following membrane rupture, resting membrane potential was assessed and recorded at I=0 and monitored during the data acquisition.
Analysis of voltage sensitivity in HEK cells was performed using custom Matlab routines. Briefly, a region of interest (ROI) was selected automatically based on fluorescence intensity and applied as a mask to all image frames. Fluorescence intensity values were calculated at known baseline and voltage step epochs.
To determine the voltage sensitivity of each of the dyes, whole-cell patch clamp electrophysiology was performed on HEK293T cells loaded with 200 nM VF (FIG. 8a-d). Depolarization of the cell membrane in the presence of VF dye results in a large increase of fluorescence, while hyperpolarization results in lower levels of fluorescence (FIG. 8c-d; FIG. 9). As an illustrative comparison, msVF2.2(OMe). […] Cl, at 48% per 100 mV. The disulfoVF2.2(OMe).

A short description of series [2]: Spectroscopic studies (absorbance, emission, quantum yield). The series is classed as physicochemical. To be noted: phosphate-buffered saline, pH 7.4 with 0.1% Triton X-100. The protocol:
Stock solutions of VF dyes were prepared in DMSO (1.0-10 mM) and diluted with PBS (100 mM Na2HPO4, pH 7.4, 0.1% Triton-X). UV-Vis absorbance and fluorescence spectra were recorded using a Shimadzu 2501 Spectrophotometer (Shimadzu) and a Quantamaster Master 4 L-format scanning spectrofluorometer (Photon Technologies International). The fluorometer is equipped with an LPS-220B 75-W xenon lamp and power supply, A-1010B lamp housing with integrated igniter, switchable 814 photon-counting/analog photomultiplier detection unit, and MD5020 motor driver. Samples were measured in 1-cm path length quartz cuvettes (Starna Cells).

Series [3] is described as follows: Solubility of VoltageFluor dyes and sulfofluoresceins in water. To be noted: ds vs ms VF dye; distilled water, 0.1% DMSO, 20 degrees Celsius, UV-Vis. It counts as physicochemical. The protocol: Suspensions of 5 milligrams each of solid mono- and disulfo-dichlorofluoresceins in 5 mL of distilled water were created. Over the course of three days, 5 milligrams of solid material was added at a time, ensuring that no visible particulates were present in the solution prior to addition. At the end of the experiment, the suspension was filtered through filter paper and then through a 0.22-μm polytetrafluoroethylene filter into a scintillation vial. 10 μL of this filtrate was used as a stock solution to determine the concentration of fluorescein present via UV-Vis spectrophotometry and the remainder was lyophilized and the amount of solid resulting was measured using an analytical microbalance. For VF dyes (VF2.1.Cl and VF2.2(OMe).Cl, both ms and ds versions), saturated solutions in distilled water were prepared via dilution from a 100 μM stock in DMSO for a resulting solution containing 0.1% DMSO. The solutions were allowed to sit overnight at 20 degrees Celsius and then filtered through 0.22-μm filters. The resulting filtrates were used as stock solutions to determine the amount of VF present via UV-Vis spectrophotometry.

Series [4] deals with HEK293T cells. The experiment in a line: Membrane localization after bath loading, fluorescence imaging. To be noted: HEK cells. It counts as cell-based. The text has this: A total of 9 new dyes were made: 6 new dsVF dyes and 3 new msVF dyes. Both msVF and dsVF dyes display similar excitation and emission profiles to previously reported msVF dyes (Table 1, FIG. 7A-I), and all localized to the plasma membrane when applied to HEK293T cells via bath loading (FIG. 8a-b).

The next series relates to rat hippocampal neurons. The experiment in a line: Staining and voltage imaging of cultured rat hippocampal neurons. It counts as cell-based. From the text: Cl, it was expected that disulfoVF2.2(OMe). Cl would be well-suited to observing membrane potential changes in neurons. Cultured rat hippocampal neurons bathed in disulfoVF2.2(OMe). […] Cl was also used to image neuronal activity in midbrain dopaminergic (mDA) neurons derived from cultured human pluripotent stem cells (hPSCs) in culture (FIG. 11b) using differentiation conditions adapted from previously established protocols. mDA neurons stained with dsVF2.2(OMe). […] Functional analysis of human- or patient-derived differentiated neurons in a simple, non-invasive manner enabled by dsVF2.2(OMe). Cl can provide an important diagnostic tool alongside more conventional methods in ascertaining proper differentiation as well as in investigating human disease phenotypes.

The subject of the next series is hPSC-derived mDA neurons. Kind of series: Voltage imaging of hPSC-derived midbrain dopaminergic (mDA) neurons. The series is classed as cell-based, human. To be noted: mDA neurons stained with 500 nM dye. The protocol: mDA neurons were derived from H1 human embryonic stem cells (hESCs) using medium conditions as described in Kriks et al., Nature, 480, 547, 2011). On Day 25 of differentiation, cells were harvested from the culture platform and pipetted to generate small 50-100 μm clusters, and seeded on 12 mm glass coverslips coated with 20 μg/ml Laminin (ThermoFischer Scientific). Cells were subsequently matured for 10 days before voltage sensitive imaging.
Functional imaging of mDA cells was performed using a 20× objective paired with image capture from the ORCA-Flash4.0 camera (Hamamatsu) at a sampling rate of 100 Hz. VoltageFluor dye was excited using the 488 nm LED with an intensity of 2.5 W/cm^2. Light was collected with the QUAD filter (430/32, 508/14, 586/30, 708/98 nm) after passing through a quadruple dichroic mirror (432/38, 509/22, 586/40, 654 nm LP). For image analysis, a custom Matlab routine was employed. Briefly, a TIFF stack was imported into Matlab and the intensity values a user-designated block of pixels was extracted as an array. The intensity over time for each block was then baseline corrected by fitting to a 2nd degree polynomial. […]

For the next series, the system named is HEK cells. The experiment in a line: Determination of photostability in HEK cells. The series is classed as cell-based. To be noted: compared to msVF2.2(OMe).Cl; 1 μM, 488 nm LED. The protocol:
HEK cells were incubated separately with ms- and ds-VF2.1.Cl and VF2.2(OMe). Cl at 1 μM in HBSS at 37 degrees Celsius for 15 minutes. Data were acquired with a W-Plan-Apo 63×/1.0 objective (Zeiss) and the ORCA-Flash4.0 camera (Hamamatsu). Images were exposed for 10 milliseconds each across 50 seconds with a constant illumination of the 488 nm LED (153 W/cm^2). The excitation light was collected with the QUAD filter (430/32, 508/14, 586/30, 708/98 nm) after passing through a quadruple dichroic mirror (432/38, 509/22, 586/40, 654 nm LP). The fluorescence curves were background subtracted and then normalized to the fluorescence intensity at t=0 and averaged across five cells of each dye.

`CCN(CC)c1ccc(/C=C/c2ccc(/C=C/c3cc(S(=O)(=O)O)c(-c4c5cc(Cl)c(=O)cc-5oc5cc(O)c(Cl)cc45)c(S(=O)(=O)O)c3)cc2)c(OC)c1` [dsVF2.2(OMe).Cl]: the “ΔF/F (%) voltage sensitivity” value in the series with HEK293T cells [1] was 63%; with HEK293T cells [1] (listed as disulfoVF2.2(OMe). Cl) it was 63%; in the series with HEK293T cells [1] (listed as disulfoVF2.2(OMe).Cl), 63%; in the series with HEK293T cells [1] (listed as dsVF2.2(OMe). Cl), “approximately 63%”. Moreover, the “Improvement (%) in voltage sensitivity” value with HEK293T cells [1] (relative to corresponding msVF) came to 19%. Further, the “Φf1 (fluorescence quantum yield)” value in series [2] worked out at 0.07. In series [2], this compound came in with a λabs of 520 nm. In series [2], this compound registered a λem of 540 nm. Also, the “improvement of aqueous solubility by second sulfonate” value in series [3] is listed as 55%. The membrane localization entry with HEK293T cells [4] is “clear membrane localization”. Moreover, the “membrane staining of neurons” value with rat hippocampal neurons (confocal microscopy, 500 nM) is given as “bright membrane staining”. Moreover, in the series on rat hippocampal neurons (rat hippocampal neurons), the “detection of membrane potential changes” value is recorded as “can be used to detect membrane potential changes in rat hippocampal neurons”. In addition, the “imaging of neuronal activity” value in the series with hPSC-derived mDA neurons was “revealed distinct firing patterns”. Moreover, the photostability result in the series with HEK cells is “good photostability”.
